Measured values published in article PMC5218480 (PLoS ONE, 2017).

System: MV-4-11 cells
Assay: Gene expression microarray analysis (Affymetrix PrimeView) and GSEA
Format: cell-based, human
Set-up: RFU PODN (11730768_x_at) / Fold change /veh PODN (11730768_x_at) / RFU LINC00158 (11744669_a_at) / Fold change /veh LINC00158 (11744669_a_at) / RFU DUSP10 (11751237_a_at) / Fold change /veh DUSP10 (11751237_a_at) / RFU ID3 (11757404_x_at) / Fold change /veh ID3 (11757404_x_at) / RFU PLEKHG5 (11737974_s_at) / Fold change /veh PLEKHG5 (11737974_s_at) / RFU LRRC4B (11730491_at) / Fold change /veh LRRC4B (11730491_at) / RFU GIMAP4 (11747438_a_at) / Fold change /veh GIMAP4 (11747438_a_at) / RFU KRT8 (11758183_x_at) / Fold change /veh KRT8 (11758183_x_at) / RFU CNN1 (11734310_a_at) / Fold change /veh CNN1 (11734310_a_at) / RFU VPS37D (11726825_at) / Fold change /veh VPS37D (11726825_at) / RFU C10orf10 (11716522_x_at) / Fold change /veh C10orf10 (11716522_x_at) / RFU KIR2DL2 /// KIR2DL4 /// KIR2DL5A /// KIR2DL5B /// KIR2DS1 /// KIR2DS2 /// KIR2DS3 /// KIR2DS4 /// KIR3DL3 /// KIR3DL3 /// KIR3DS1 (11738374_at) / Fold change /veh KIR2DL2 /// KIR2DL4 /// KIR2DL5A /// KIR2DL5B /// KIR2DS1 /// KIR2DS2 /// KIR2DS3 /// KIR2DS4 /// KIR3DL3 /// KIR3DL3 /// KIR3DS1 (11738374_at) / RFU C1QL1 (11718748_at) / Fold change /veh C1QL1 (11718748_at) / RFU TMPRSS4 (11747572_a_at) / Fold change /veh TMPRSS4 (11747572_a_at) / RFU HAMP (11756126_x_at) / Fold change /veh HAMP (11756126_x_at) / RFU RNFT2 (11725882_a_at) / Fold change /veh RNFT2 (11725882_a_at) / RFU NR4A2 (11747474_a_at) / Fold change /veh NR4A2 (11747474_a_at) / RFU ABCC12 (11746883_a_at) / Fold change /veh ABCC12 (11746883_a_at) / RFU TMEM136 (11760407_x_at) / Fold change /veh TMEM136 (11760407_x_at) / RFU CLDN22 /// WWC2 (11732394_at) / Fold change /veh CLDN22 /// WWC2 (11732394_at) / RFU HLA-DPB1 (11760878_x_at) / Fold change /veh HLA-DPB1 (11760878_x_at) / RFU SPINT1 (11716480_a_at) / Fold change /veh SPINT1 (11716480_a_at) / RFU GAP43 (11754022_s_at) / Fold change /veh GAP43 (11754022_s_at) / RFU A4GNT (11735810_at) / Fold change /veh A4GNT (11735810_at) / RFU PRB3 (11715151_x_at) / Fold change /veh PRB3 (11715151_x_at) / RFU TUBB4B (11761932_at) / Fold change /veh TUBB4B (11761932_at) / RFU CAPN14 (11732068_a_at) / Fold change /veh CAPN14 (11732068_a_at) / RFU TMCC2 (11721928_a_at) / Fold change /veh TMCC2 (11721928_a_at) / RFU IRGQ (11745062_a_at) / Fold change /veh IRGQ (11745062_a_at) / RFU FAM174B (11720279_a_at) / Fold change /veh FAM174B (11720279_a_at) / RFU TMPRSS4 (11748680_a_at) / Fold change /veh TMPRSS4 (11748680_a_at) / RFU FAM212B (11763350_a_at) / Fold change /veh FAM212B (11763350_a_at) / RFU PLEKHG5 (11743358_a_at) / Fold change /veh PLEKHG5 (11743358_a_at) / RFU ZSCAN30 (11745921_a_at) / Fold change /veh ZSCAN30 (11745921_a_at) / RFU CMKLR1 (11741424_a_at) / Fold change /veh CMKLR1 (11741424_a_at) / RFU LOC101060620 /// MAPK8IP1 (11723275_at) / Fold change /veh LOC101060620 /// MAPK8IP1 (11723275_at) / RFU SPTSSB (11747773_x_at) / Fold change /veh SPTSSB (11747773_x_at) / RFU PRSS12 (11739890_at) / Fold change /veh PRSS12 (11739890_at) / RFU BIN1 (11741810_x_at) / Fold change /veh BIN1 (11741810_x_at) / RFU WNT11 (11732464_a_at) / Fold change /veh WNT11 (11732464_a_at) / RFU C10orf10 (11716521_a_at) / Fold change /veh C10orf10 (11716521_a_at) / RFU C5orf56 (11738089_at) / Fold change /veh C5orf56 (11738089_at) / RFU CYB561 (11721691_x_at) / Fold change /veh CYB561 (11721691_x_at) / RFU ANKRD19P (11752326_a_at) / Fold change /veh ANKRD19P (11752326_a_at) / RFU OR2T12 /// OR2T33 /// OR2T8 (11738714_s_at) / Fold change /veh OR2T12 /// OR2T33 /// OR2T8 (11738714_s_at) / RFU VCAN (11748164_a_at) / Fold change /veh VCAN (11748164_a_at) / RFU JSRP1 (11732532_at) / Fold change /veh JSRP1 (11732532_at) / RFU KRTAP10-11 (11738290_x_at) / Fold change /veh KRTAP10-11 (11738290_x_at) / RFU MYO3A (11730013_a_at) / Fold change /veh MYO3A (11730013_a_at) / RFU EBF3 (11725865_a_at) / Fold change /veh EBF3 (11725865_a_at) / RFU CAMK2N1 (11719241_x_at) / Fold change /veh CAMK2N1 (11719241_x_at) / RFU C5orf56 (11738088_a_at) / Fold change /veh C5orf56 (11738088_a_at) / RFU OLFML3 (11715873_a_at) / Fold change /veh OLFML3 (11715873_a_at) / RFU LOC100653217 /// NTM (11731650_a_at) / Fold change /veh LOC100653217 /// NTM (11731650_a_at) / RFU MAPK11 (11762145_a_at) / Fold change /veh MAPK11 (11762145_a_at) / RFU FIZ1 (11724087_x_at) / Fold change /veh FIZ1 (11724087_x_at) / RFU OASL (11726364_x_at) / Fold change /veh OASL (11726364_x_at) / RFU SOX15 (11748057_x_at) / Fold change /veh SOX15 (11748057_x_at) / RFU CD79A (11719716_a_at) / Fold change /veh CD79A (11719716_a_at) / RFU HIST1H1D (11736915_at) / Fold change /veh HIST1H1D (11736915_at) / RFU CASKIN2 (11723855_a_at) / Fold change /veh CASKIN2 (11723855_a_at) / RFU LOC730098 (11760151_x_at) / Fold change /veh LOC730098 (11760151_x_at) / RFU OR4N2 (11742367_at) / Fold change /veh OR4N2 (11742367_at) / RFU PRRT2 (11749266_a_at) / Fold change /veh PRRT2 (11749266_a_at) / RFU SNX32 (11753110_a_at) / Fold change /veh SNX32 (11753110_a_at) / RFU CDHR5 (11726645_a_at) / Fold change /veh CDHR5 (11726645_a_at) / RFU RCAN1 (11760418_a_at) / Fold change /veh RCAN1 (11760418_a_at) / RFU FAM167A (11723789_a_at) / Fold change /veh FAM167A (11723789_a_at) / RFU FAM26E (11764081_at) / Fold change /veh FAM26E (11764081_at) / RFU ISYNA1 (11749810_s_at) / Fold change /veh ISYNA1 (11749810_s_at) / RFU ACY1 (11761880_at) / Fold change /veh ACY1 (11761880_at) / RFU 11764098_at / Fold change /veh 11764098_at / RFU SAMD14 (11745864_x_at) / Fold change /veh SAMD14 (11745864_x_at) / RFU NPB (11741838_a_at) / Fold change /veh NPB (11741838_a_at) / RFU TMPRSS6 (11731388_a_at) / Fold change /veh TMPRSS6 (11731388_a_at) / RFU KRTAP10-2 (11738614_at) / Fold change /veh KRTAP10-2 (11738614_at) / RFU ARHGAP8 /// PRR5-ARHGAP8 (11727945_x_at) / Fold change /veh ARHGAP8 /// PRR5-ARHGAP8 (11727945_x_at) / RFU KRTAP5-7 /// NADSYN1 (11734609_at) / Fold change /veh KRTAP5-7 /// NADSYN1 (11734609_at) / RFU RASL12 (11751679_a_at) / Fold change /veh RASL12 (11751679_a_at) / RFU CDKN2B (11736163_a_at) / Fold change /veh CDKN2B (11736163_a_at) / RFU PRF1 (11729649_at) / Fold change /veh PRF1 (11729649_at) / RFU, ZNF638 /// ZNF638-IT1 / Fold change vs veh, ZNF638 /// ZNF638-IT1 / RFU, PANK3 / Fold change vs veh, PANK3 / RFU, SH3YL1 / Fold change vs veh, SH3YL1 / RFU, ZEB2 / Fold change vs veh, ZEB2 / RFU, NRIP1 / Fold change vs veh, NRIP1 / RFU, PTTG1IP / Fold change vs veh, PTTG1IP / RFU, CAPN2 / Fold change vs veh, CAPN2 / RFU, MED14 / Fold change vs veh, MED14 / RFU, SNORA58 / Fold change vs veh, SNORA58 / RFU, C1orf63 / Fold change vs veh, C1orf63 / RFU, LRRFIP1 / Fold change vs veh, LRRFIP1 / RFU, NDUFAF7 / Fold change vs veh, NDUFAF7 / RFU, SLC12A2 / Fold change vs veh, SLC12A2 / RFU, IBTK / Fold change vs veh, IBTK / RFU, ESF1 / Fold change vs veh, ESF1 / Fold change vs veh, TMEM50B / RFU, TAOK1 / Fold change vs veh, TAOK1 / RFU, ACBD3 / Fold change vs veh, ACBD3 / RFU, TMA16 / Fold change vs veh, TMA16 / RFU, RWDD3 / Fold change vs veh, RWDD3 / RFU, BCAT1 / Fold change vs veh, BCAT1 / RFU, EDEM3 / Fold change vs veh, EDEM3 / RFU, TMEM33 / Fold change vs veh, TMEM33 / RFU, WDR75 / Fold change vs veh, WDR75 / RFU, AHCTF1 / Fold change vs veh, AHCTF1 / RFU, TFRC / Fold change vs veh, TFRC / RFU, ZDHHC17 / Fold change vs veh, ZDHHC17 / RFU, NOM1 / Fold change vs veh, NOM1 / RFU, ARL8B / Fold change vs veh, ARL8B / RFU, ZBTB11 / Fold change vs veh, ZBTB11 / RFU, TAMM41 / Fold change vs veh, TAMM41 / RFU, KIAA1704 /// LOC100996395 / Fold change vs veh, KIAA1704 /// LOC100996395 / RFU, ING1 / Fold change vs veh, ING1 / RFU, TRMT61B / Fold change vs veh, TRMT61B / RFU, FUBP3 / Fold change vs veh, FUBP3 / RFU, TP53 / Fold change vs veh, TP53 / RFU, TNKS2 / Fold change vs veh, TNKS2 / RFU, ZFP14 / Fold change vs veh, ZFP14 / RFU, ACTR2 / Fold change vs veh, ACTR2 / RFU, PPP3R1 / Fold change vs veh, PPP3R1 / RFU, PIK3R1 / Fold change vs veh, PIK3R1 / RFU, HNRNPA1 / Fold change vs veh, HNRNPA1 / RFU, RNF170 / Fold change vs veh, RNF170 / RFU, ZNF28 / Fold change vs veh, ZNF28 / RFU, RNGTT / Fold change vs veh, RNGTT / RFU, OGT / Fold change vs veh, OGT / RFU, BRD1 / Fold change vs veh, BRD1 / RFU, MARS / Fold change vs veh, MARS / RFU, ZNF655 / Fold change vs veh, ZNF655 / RFU, FAHD1 / Fold change vs veh, FAHD1 / RFU, BDP1 / Fold change vs veh, BDP1 / RFU, LRRCC1 / Fold change vs veh, LRRCC1 / RFU, ARID1A / Fold change vs veh, ARID1A / RFU, ZNF146 / Fold change vs veh, ZNF146 / RFU, ZNF330 / Fold change vs veh, ZNF330 / RFU, GPN3 / Fold change vs veh, GPN3 / RFU, C9orf123 / Fold change vs veh, C9orf123 / RFU, N4BP2L2 / Fold change vs veh, N4BP2L2 / RFU, ARFIP1 / Fold change vs veh, ARFIP1 / RFU, FAM179B / Fold change vs veh, FAM179B / RFU, BCL10 / Fold change vs veh, BCL10 / RFU, UHRF1BP1L / Fold change vs veh, UHRF1BP1L / RFU, BET1 / Fold change vs veh, BET1 / RFU, CNOT2 / Fold change vs veh, CNOT2 / RFU, ZNF268 / Fold change vs veh, ZNF268 / Fold change vs veh, ZNF507 / RFU, DGCR2 / Fold change vs veh, DGCR2 / RFU, WDSUB1 / Fold change vs veh, WDSUB1 / Fold change vs veh, HSP90B1 /// MIR3652 / RFU, ADSS / Fold change vs veh, ADSS / RFU, GK / Fold change vs veh, GK / RFU, ZNF148 / Fold change vs veh, ZNF148 / RFU, TAF9 / Fold change vs veh, TAF9 / RFU, SLC1A5 / Fold change vs veh, SLC1A5 / RFU, SLMO2 / Fold change vs veh, SLMO2 / RFU, ABCC4 / Fold change vs veh, ABCC4 / RFU, LOC101060439 /// RAP1B / Fold change vs veh, LOC101060439 /// RAP1B / RFU, RFX7 / Fold change vs veh, RFX7 / RFU, GTPBP10 / Fold change vs veh, GTPBP10 / RFU, CNEP1R1 / Fold change vs veh, CNEP1R1 / RFU, BIVM-ERCC5 /// ERCC5 / Fold change vs veh, BIVM-ERCC5 /// ERCC5 / RFU, ILF3 / Fold change vs veh, ILF3 / RFU 11762660_at / Fold change /veh 11762660_at / RFU VCAN (11757783_s_at) / Fold change /veh VCAN (11757783_s_at) / RFU DDX43 (11728927_at) / Fold change /veh DDX43 (11728927_at) / RFU KRT8 (11758188_x_at) / Fold change /veh KRT8 (11758188_x_at) / RFU NKD1 (11759106_at) / Fold change /veh NKD1 (11759106_at) / RFU SRD5A1 (11742802_a_at) / Fold change /veh SRD5A1 (11742802_a_at) / RFU TPSAB1 /// TPSB2 (11721975_s_at) / Fold change /veh TPSAB1 /// TPSB2 (11721975_s_at) / RFU GSTM3 (11746129_a_at) / Fold change /veh GSTM3 (11746129_a_at) / RFU IL23R (11737362_x_at) / Fold change /veh IL23R (11737362_x_at) / RFU TMEM51 (11727254_a_at) / Fold change /veh TMEM51 (11727254_a_at) / RFU PIWIL2 (11732686_x_at) / Fold change /veh PIWIL2 (11732686_x_at) / RFU ORM1 (11744905_x_at) / Fold change /veh ORM1 (11744905_x_at) / RFU CCDC152 (11743942_at) / Fold change /veh CCDC152 (11743942_at) / RFU ECM1 (11717891_a_at) / Fold change /veh ECM1 (11717891_a_at) / RFU IL23R (11748794_a_at) / Fold change /veh IL23R (11748794_a_at) / RFU TNFAIP8L3 (11732012_x_at) / Fold change /veh TNFAIP8L3 (11732012_x_at) / RFU MBOAT4 (11741988_at) / Fold change /veh MBOAT4 (11741988_at) / RFU 11764193_at / Fold change /veh 11764193_at / RFU TMEM53 (11763286_at) / Fold change /veh TMEM53 (11763286_at) / RFU MAGEB2 (11727129_at) / Fold change /veh MAGEB2 (11727129_at) / RFU TMEM200A (11744735_a_at) / Fold change /veh TMEM200A (11744735_a_at) / RFU CCDC152 (11751479_a_at) / Fold change /veh CCDC152 (11751479_a_at) / RFU FAM211A (11726209_a_at) / Fold change /veh FAM211A (11726209_a_at) / RFU RGS16 (11746705_a_at) / Fold change /veh RGS16 (11746705_a_at) / RFU VCAN (11755009_s_at) / Fold change /veh VCAN (11755009_s_at) / RFU RHOB (11743442_s_at) / Fold change /veh RHOB (11743442_s_at) / RFU RGS16 (11720943_a_at) / Fold change /veh RGS16 (11720943_a_at) / RFU RGS16 (11720944_at) / Fold change /veh RGS16 (11720944_at) / RFU, VPS4B / Fold change vs veh, VPS4B / RFU, CREB1 / Fold change vs veh, CREB1 / RFU, DNAJC13 / Fold change vs veh, DNAJC13 / RFU, GNAQ / Fold change vs veh, GNAQ / RFU, CDK5R1 / Fold change vs veh, CDK5R1 / RFU, ZRANB3 / Fold change vs veh, ZRANB3 / RFU, CUL4A / Fold change vs veh, CUL4A / RFU, CCNY / Fold change vs veh, CCNY / RFU, UFL1 / Fold change vs veh, UFL1 / RFU, COG3 / Fold change vs veh, COG3 / RFU, DIAPH2 / Fold change vs veh, DIAPH2 / RFU, SKA2 / Fold change vs veh, SKA2 / RFU, AFF3 / Fold change vs veh, AFF3 / RFU, LMF1 / Fold change vs veh, LMF1 / RFU, IPO11 / Fold change vs veh, IPO11 / RFU, DFFB / Fold change vs veh, DFFB / RFU, FOXP1 / Fold change vs veh, FOXP1 / RFU, CARD8 / Fold change vs veh, CARD8 / RFU, STRN3 / Fold change vs veh, STRN3 / RFU, ADK / Fold change vs veh, ADK / RFU, RASSF2 / Fold change vs veh, RASSF2 / RFU, WIPF1 / Fold change vs veh, WIPF1 / RFU, LARP1B / Fold change vs veh, LARP1B / RFU, RASA1 / Fold change vs veh, RASA1 / RFU, RB1 / Fold change vs veh, RB1 / RFU, PPFIA1 / Fold change vs veh, PPFIA1 / RFU, MAT2A / Fold change vs veh, MAT2A / RFU, CCT5 / Fold change vs veh, CCT5 / RFU, WDR92 / Fold change vs veh, WDR92 / RFU, CUX1 / Fold change vs veh, CUX1 / RFU, TTC7A / Fold change vs veh, TTC7A / RFU, TMEM135 / Fold change vs veh, TMEM135 / RFU, DEPTOR / Fold change vs veh, DEPTOR / RFU, CPM / Fold change vs veh, CPM / RFU, DNAJB6 / Fold change vs veh, DNAJB6 / RFU, CACNA2D3 / Fold change vs veh, CACNA2D3 / RFU, DTX4 / Fold change vs veh, DTX4 / RFU, TFCP2 / Fold change vs veh, TFCP2 / RFU, GMCL1 /// GMCL1P1 / Fold change vs veh, GMCL1 /// GMCL1P1 / RFU, AEBP2 / Fold change vs veh, AEBP2 / RFU, SNHG1 /// SNORD22 /// SNORD25 /// SNORD26 /// SNORD27 /// SNORD28 /// SNORD29 /// SNORD31 / Fold change vs veh, SNHG1 /// SNORD22 /// SNORD25 /// SNORD26 /// SNORD27 /// SNORD28 /// SNORD29 /// SNORD31 / Fold change (Aza/veh), C12orf56 (ProbeSet 11735607_a_at) / Fold change (ACY-1035/veh), C12orf56 (ProbeSet 11735607_a_at) / Fold change (Aza/veh), FGFR1OP (ProbeSet 11751329_s_at) / Fold change (ACY-1035/veh), FGFR1OP (ProbeSet 11751329_s_at) / Fold change (Aza/veh), VPS36 (ProbeSet 11739960_a_at) / Fold change (ACY-1035/veh), VPS36 (ProbeSet 11739960_a_at) / RFU SYPL1 (11715823_x_at) / Fold change /veh SYPL1 (11715823_x_at) / RFU IGFBP7 (11715501_s_at) / Fold change /veh IGFBP7 (11715501_s_at) / RFU REEP3 (11722064_at) / Fold change /veh REEP3 (11722064_at) / RFU IGLL1 (11728026_x_at) / Fold change /veh IGLL1 (11728026_x_at): dose or concentration left out as unconfirmed
Conditions: ProbeSet 11756954_s_at; LIST B

For `Nc1ccc(-c2cccs2)cc1NC(=O)c1ccc2c(c1)cc(C1CC1)n2CCN1CCOCC1` [ACY-1035], the “RFU, ZEB2” value was 1361.36 RFU.
